From ChEMBL document CHEMBL1909046, “DrugMatrix in vitro pharmacology data”

Columns and labels:
[1] = biological target: Tyrosine-protein kinase Lck (Homo sapiens, UniProt P06239); test: DRUGMATRIX: Protein Tyrosine Kinase, LCK enzyme inhibition (substrate: Poly(Glu:Tyr)); format: cell-based, Insect cells; conditions: Not Active = under 50% inhibition at 10 µM
[2] = biological target: T1, C-X-C chemokine receptor type 1 (Homo sapiens, UniProt P25024); further: in other assays of this panel Not Active means under 50% inhibition at 10 µM
T1 sequence (P25024 whole entry): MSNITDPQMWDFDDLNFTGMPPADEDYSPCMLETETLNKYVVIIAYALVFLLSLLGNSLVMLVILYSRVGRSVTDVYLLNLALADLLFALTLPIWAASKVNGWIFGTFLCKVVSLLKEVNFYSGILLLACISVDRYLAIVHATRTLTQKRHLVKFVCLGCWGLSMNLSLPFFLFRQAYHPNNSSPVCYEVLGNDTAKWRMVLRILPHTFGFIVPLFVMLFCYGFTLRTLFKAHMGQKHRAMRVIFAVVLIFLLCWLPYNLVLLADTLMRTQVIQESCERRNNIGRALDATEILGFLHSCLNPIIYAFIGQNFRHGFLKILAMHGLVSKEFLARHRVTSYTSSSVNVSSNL

[3] = biological target: T2, Alpha-2C adrenergic receptor (Homo sapiens, UniProt P18825); test: DRUGMATRIX: Adrenergic Alpha-2C radioligand binding (ligand: [3H] MK-912); format: cell membranes, Sf9, Membrane
T2 sequence (P18825 whole entry): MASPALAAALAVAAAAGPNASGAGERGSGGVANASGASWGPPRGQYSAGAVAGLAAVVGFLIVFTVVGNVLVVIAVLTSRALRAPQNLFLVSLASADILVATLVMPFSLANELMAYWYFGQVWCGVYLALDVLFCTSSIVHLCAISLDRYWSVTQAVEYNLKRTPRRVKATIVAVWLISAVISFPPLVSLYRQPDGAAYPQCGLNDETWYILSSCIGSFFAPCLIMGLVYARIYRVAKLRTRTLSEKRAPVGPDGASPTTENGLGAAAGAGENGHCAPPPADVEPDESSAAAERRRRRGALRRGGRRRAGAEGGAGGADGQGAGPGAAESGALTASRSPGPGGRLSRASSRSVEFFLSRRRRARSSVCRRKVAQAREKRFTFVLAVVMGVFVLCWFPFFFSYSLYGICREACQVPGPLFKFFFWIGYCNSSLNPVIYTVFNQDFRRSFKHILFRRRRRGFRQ

[4] = biological target: T3, Type-2 angiotensin II receptor (Homo sapiens, UniProt P50052); test: biochemical; format: cell-based, CHO-K1; further: in other assays of this panel Not Active means under 50% inhibition at 10 µM
T3 sequence (P50052 whole entry): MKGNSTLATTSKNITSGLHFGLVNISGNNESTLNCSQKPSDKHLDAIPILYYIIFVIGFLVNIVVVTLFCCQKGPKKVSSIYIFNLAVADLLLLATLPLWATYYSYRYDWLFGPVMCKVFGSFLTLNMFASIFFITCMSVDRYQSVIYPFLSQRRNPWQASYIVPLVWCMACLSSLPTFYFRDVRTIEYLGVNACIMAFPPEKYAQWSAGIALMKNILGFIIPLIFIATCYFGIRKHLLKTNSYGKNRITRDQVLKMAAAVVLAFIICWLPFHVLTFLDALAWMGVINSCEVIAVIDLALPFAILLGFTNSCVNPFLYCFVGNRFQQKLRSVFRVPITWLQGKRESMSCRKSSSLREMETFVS

Adenosine receptor A3 = biological target: T4, Adenosine receptor A3 (Homo sapiens, UniProt P0DMS8); format: cell membranes, CHO-K1, Membrane;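 further: radioligand binding assay with AB-MECA serving as the labeled ligand; in other assays of this panel Not Active means under 50% inhibition at 10 µM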
T4 sequence (P0DMS8 whole entry): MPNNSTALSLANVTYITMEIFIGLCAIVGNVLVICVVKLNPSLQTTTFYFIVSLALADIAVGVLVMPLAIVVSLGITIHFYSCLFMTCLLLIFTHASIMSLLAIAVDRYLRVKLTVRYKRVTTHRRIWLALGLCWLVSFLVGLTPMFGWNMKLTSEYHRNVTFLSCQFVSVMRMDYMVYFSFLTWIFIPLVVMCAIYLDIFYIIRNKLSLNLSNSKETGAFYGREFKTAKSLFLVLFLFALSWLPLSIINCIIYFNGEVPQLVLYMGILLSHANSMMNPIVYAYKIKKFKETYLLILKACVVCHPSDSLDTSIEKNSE

Chain of Tyrosine-protein kinase Lck (P06239 whole entry): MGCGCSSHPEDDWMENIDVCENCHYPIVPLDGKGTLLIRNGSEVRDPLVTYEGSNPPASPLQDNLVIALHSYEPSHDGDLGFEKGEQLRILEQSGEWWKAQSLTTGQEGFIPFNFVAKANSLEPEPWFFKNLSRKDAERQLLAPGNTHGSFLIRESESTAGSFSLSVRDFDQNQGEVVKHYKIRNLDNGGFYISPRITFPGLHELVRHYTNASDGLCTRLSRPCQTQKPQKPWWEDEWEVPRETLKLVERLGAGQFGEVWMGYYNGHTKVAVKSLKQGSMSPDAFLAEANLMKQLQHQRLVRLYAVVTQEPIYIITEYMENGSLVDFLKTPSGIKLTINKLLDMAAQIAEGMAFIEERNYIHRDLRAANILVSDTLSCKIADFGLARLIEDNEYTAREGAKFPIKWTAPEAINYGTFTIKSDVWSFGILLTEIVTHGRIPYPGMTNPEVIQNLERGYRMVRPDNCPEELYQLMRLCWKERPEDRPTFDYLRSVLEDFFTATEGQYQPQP

Row | Compound | IC50 ([1]; insect cells) | IC50 [2] | IC50 ([3]; sf9) | IC50 ([4]; cho-k1) | IC50 (Adenosine receptor A3; cho-k1) | other results
1 | Clc1ccc(COC(Cn2ccnc2)c2ccc(Cl)cc2Cl)c(Cl)c1 (configuration not stated) [MICONAZOLE] | Not Active | Not Active | Not Active | – | – | IC50 ([4]; read-out: IC50): 24 µM; Ki ([4]; read-out: Ki): 7.78 µM
2 | CC1CCC(NC(=O)N(CCCl)N=O)CC1 (configuration not stated) [SEMUSTINE] | Not Active | Not Active | Not Active | Not Active | Not Active | –
3 | O=C1C[C@@H]2OCC=C3CN4CC[C@]56c7ccccc7N1[C@H]5[C@H]2[C@H]3C[C@H]46 [STRYCHNINE] | Not Active | Not Active | Not Active | Not Active | Not Active | –
4 | C[S+]([O-])c1ccc(-c2nc(-c3ccncc3)c(-c3ccc(F)cc3)[nH]2)cc1 (configuration not stated) [SB-203580] | – | Not Active | Not Active | Not Active | Not Active | –
5 | CC(=N)S [THIOACETAMIDE] | Not Active | Not Active | Not Active | Not Active | Not Active | –
6 | COC(=O)[C@H]1[C@H]2C[C@@H]3c4[nH]c5cc(OC)ccc5c4CCN3C[C@H]2C[C@@H](OC(=O)c2cc(OC)c(OC)c(OC)c2)[C@@H]1OC [RESERPINE] | Not Active | Not Active | Not Active | Not Active | Not Active | –
7 | O=c1[nH]c(=O)n(C2CCCO2)cc1F (configuration not stated) [TEGAFUR] | Not Active | Not Active | Not Active | Not Active | Not Active | –
8 | C[N+](C)(C)CCOC(=O)CCC(=O)OCC[N+](C)(C)C.[Cl-].[Cl-] [SUCCINYLCHOLINE CHLORIDE] | Not Active | Not Active | Not Active | Not Active | Not Active | –
9 | CCCCC(=O)N(Cc1ccc(-c2ccccc2-c2nnn[nH]2)cc1)[C@H](C(=O)O)C(C)C | Not Active | Not Active | Not Active | Not Active | Not Active | –
10 | CN1CCN(C2=Nc3cc(Cl)ccc3Nc3ccccc32)CC1 [CLOZAPINE] | Not Active | Not Active | – | Not Active | Not Active | –
11 | Oc1ccc2c3c1O[C@H]1[C@@H](O)CC[C@@]4(O)[C@@H](C2)N(CC2CCC2)CC[C@]314 [NALBUPHINE] | Not Active | Not Active | Not Active | Not Active | Not Active | –
12 | CN(C)C(=O)C(CCN1CCC(O)(c2ccc(Cl)cc2)CC1)(c1ccccc1)c1ccccc1 [LOPERAMIDE] | Not Active | Not Active | Not Active | Not Active | Not Active | –
13 | O=C(O)c1ccccc1O [SALICYLIC ACID] | Not Active | Not Active | Not Active | Not Active | Not Active | –
14 | Nc1ccc(S(=O)(=O)NC(=O)c2ccccc2)cc1 [SULFABENZAMIDE] | Not Active | Not Active | Not Active | Not Active | Not Active | –
15 | C[C@@](Cc1ccc(O)c(O)c1)(NN)C(=O)O.O [CARBIDOPA] | – | Not Active | Not Active | Not Active | Not Active | IC50 ([1]; read-out: IC50): 6.8 µM
16 | CCCCCCCCNC(C)C(O)c1ccc(SC(C)C)cc1 (configuration not stated) [SULOCTIDIL] | Not Active | Not Active | – | Not Active | – | IC50 ([3]; read-out: IC50): 3.45 µM; Ki ([3]; read-out: Ki): 0.501 µM; IC50 (Adenosine receptor A3; read-out: IC50): 3.71 µM; Ki (Adenosine receptor A3; read-out: Ki): 2.09 µM
17 | CN1CCN(CCCN2c3ccccc3Sc3ccc(C(F)(F)F)cc32)CC1 [TRIFLUOPERAZINE] | Not Active | Not Active | Not Active | Not Active | Not Active | –
18 | C[C@]12C=CC(=O)C=C1CC[C@@H]1[C@@H]2C(=O)C[C@@]2(C)[C@H]1CC[C@]2(O)C(=O)CO [PREDNISONE] | Not Active | Not Active | Not Active | Not Active | Not Active | –
19 | OCCOCCN1CCN(C2=Nc3ccccc3Sc3ccccc32)CC1 [QUETIAPINE] | Not Active | Not Active | – | Not Active | Not Active | –
20 | CC(C)NC[C@H](O)COc1cccc2ccccc12 [LEVOPROPRANOLOL] | Not Active | Not Active | Not Active | Not Active | Not Active | –
21 | O=C(O)CCCCC1CCSS1 (stereo not drawn) [LIPOIC ACID, ALPHA] | Not Active | Not Active | Not Active | Not Active | Not Active | –
22 | CC(C)NC[C@@H](O)COc1cccc2ccccc12 [DEXPROPRANOLOL] | Not Active | Not Active | Not Active | Not Active | Not Active | –
23 | Cc1ccc(C(=O)c2ccc(CC(=O)O)n2C)cc1 [TOLMETIN] | Not Active | Not Active | Not Active | Not Active | Not Active | –
24 | CC(=O)OCC(COC(C)=O)OC(C)=O [TRIACETIN] | Not Active | Not Active | Not Active | Not Active | Not Active | –
25 | TRANSPLATIN | – | Not Active | Not Active | Not Active | – | IC50 ([1]; insect cells, read-out: IC50): 2.72 µM; Ki [2]: Not Active; Ki ([3]; sf9): Not Active; Ki ([4]; cho-k1): Not Active; IC50 (Adenosine receptor A3; cho-k1, read-out: IC50): 0.989 µM; Ki (Adenosine receptor A3; cho-k1, read-out: Ki): 0.559 µM
26 | O=C(O)COc1ccc(C(=O)c2cccs2)c(Cl)c1Cl | Not Active | Not Active | Not Active | Not Active | Not Active | –
27 | CN1[C@@H]2CC[C@H]1C[C@@H](OC(c1ccccc1)c1ccccc1)C2 [BENZTROPINE] | Not Active | Not Active | – | Not Active | Not Active | –
28 | ZIRCONIUM(IV) CHLORIDE | Not Active | Not Active | Not Active | Not Active | Not Active | Ki ([1]; insect cells): Not Active; Ki [2]: Not Active; Ki ([3]; sf9): Not Active; Ki ([4]; cho-k1): Not Active; Ki (Adenosine receptor A3; cho-k1): Not Active
